Experiment [1] relates to Jurkat cells. Briefly: IL-2 secretion assay in CD3/CD28-activated Jurkat cells (AlphaLISA). It counts as cell-based, human. The conditions noted are these: CD3/CD28 activation, 24 h. How it is done:
Certain compounds were also evaluated in an IL-2 secretion assay. On the day of the assay, a 16 point, 1:2 master serial dilution of each compound was prepared in Opti-MEM to span a final concentration range of […]. Assays were set up in CORNING® tissue culture-treated 384-well microplates containing 60 nL of each dilution. Jurkat cells grown in RPMI-1640 supplemented with 10% FBS, 1% Glutamax, and 1% Pen/Strep were collected, resuspended in Opti-MEM. 50,000 cells/well and added to the compound plates. After a short spin (1200 rpm for 1 min), the plates were incubated at 37° C. for 1 hour. The cells were activated by adding 15 μL of IMMUNOCULT™ Human CD3/CD28 T Cell Activator (STEMCELL Technologies) diluted in Opti-MEM. After 24 h of incubation at 37° C., aliquots of culture supernatants were transferred to OptiPlate-384 (PerkinElmer) microplates. The level of JIL-2 secretion in the supernatants was then determined using the IL-2 (human) AiphaLISA Detection Kit (PerkinElmer) according to the manufacturer's recommendations. The AiphaLISA signal was measured using an EnVision plate reader (PerkinElmer). EC50 values were determined by fitting the data to a standard 4-parameter logistic equation. See Table 3 for data for select compounds (IL-2 Secretion (EC50)).
On the technique in general: Bead proximity is the source of the signal in Alpha formats.

Experiment [2] has as its target Cbl-b (Homo sapiens (Human), UniProt Q13191). Briefly: Cbl-b probe displacement HTRF binding assay. As to conditions: 0.4 nM biotinylated Cbl-b, 150 nM BODIPY probe. The procedure: The affinity with which compounds of the present disclosure bind to Cbl-b was assessed using probe displacement homologous time resolved fluorescence (HTRF) assays. The assays used a BODIPY™ conjugated probe (Example 54 from WO 2020264398) and biotinylated Cbl-b. The assays were performed in assay buffer consisting of 20 mM Hepes, 150 mM NaCl, 0.01% Triton X-100, 0.5 mM TCEP, 0.01% BSA. On the day of the assay, a 20 point, 1:2 master serial dilution of each compound was prepared in DMSO to span a final concentration range of 10 μM to 0 nM. Two hundred nanoliters of diluted compound was added to each well of a 384-well plate. Fifteen microliters of biotinylated-Cbl-b resuspended in assay buffer were added to each well and the plate incubated for 60 minutes at room temperature prior to addition of 5 μL of BODIPY™ probe in assay buffer. Final assay conditions included 0.4 nM of Cbl-b and 150 nM of BODIPY™ probe. After a further 15 minutes of incubation at room temperature, 5 μl of Streptavidin-Terbium cryptate reagent at 5-fold final concentration was added to each well of the 384-well plate. Binding of a probe to Cbl-b results in an increase of HTRF signal. HTRF signal was measured by Envision plate reader, while competition of a compound of the present disclosure with probe results in a decrease of signal. Percentage maximum activity in each test well was calculated based on DMSO (maximum activity, 0% displacement) and no protein control wells (baseline activity, 100% displacement). Binding affinity was determined from a dose response curve fitted using a standard four parameter fit equation. See Table 3 for data for compounds (Cbl-b Binding (IC50)).
(In general: Time-resolved FRET reads energy transfer from a long-lived donor to a nearby acceptor.)

The values below come from patent US20240425497A1, “Cbl-b Inhibitors and Methods of Use Thereof” (ARCUS BIOSCIENCES, INC., priority 2023, published 2024).

Structures are written as SMILES.

Sequence of Cbl-b (Q13191 whole entry, species assumed): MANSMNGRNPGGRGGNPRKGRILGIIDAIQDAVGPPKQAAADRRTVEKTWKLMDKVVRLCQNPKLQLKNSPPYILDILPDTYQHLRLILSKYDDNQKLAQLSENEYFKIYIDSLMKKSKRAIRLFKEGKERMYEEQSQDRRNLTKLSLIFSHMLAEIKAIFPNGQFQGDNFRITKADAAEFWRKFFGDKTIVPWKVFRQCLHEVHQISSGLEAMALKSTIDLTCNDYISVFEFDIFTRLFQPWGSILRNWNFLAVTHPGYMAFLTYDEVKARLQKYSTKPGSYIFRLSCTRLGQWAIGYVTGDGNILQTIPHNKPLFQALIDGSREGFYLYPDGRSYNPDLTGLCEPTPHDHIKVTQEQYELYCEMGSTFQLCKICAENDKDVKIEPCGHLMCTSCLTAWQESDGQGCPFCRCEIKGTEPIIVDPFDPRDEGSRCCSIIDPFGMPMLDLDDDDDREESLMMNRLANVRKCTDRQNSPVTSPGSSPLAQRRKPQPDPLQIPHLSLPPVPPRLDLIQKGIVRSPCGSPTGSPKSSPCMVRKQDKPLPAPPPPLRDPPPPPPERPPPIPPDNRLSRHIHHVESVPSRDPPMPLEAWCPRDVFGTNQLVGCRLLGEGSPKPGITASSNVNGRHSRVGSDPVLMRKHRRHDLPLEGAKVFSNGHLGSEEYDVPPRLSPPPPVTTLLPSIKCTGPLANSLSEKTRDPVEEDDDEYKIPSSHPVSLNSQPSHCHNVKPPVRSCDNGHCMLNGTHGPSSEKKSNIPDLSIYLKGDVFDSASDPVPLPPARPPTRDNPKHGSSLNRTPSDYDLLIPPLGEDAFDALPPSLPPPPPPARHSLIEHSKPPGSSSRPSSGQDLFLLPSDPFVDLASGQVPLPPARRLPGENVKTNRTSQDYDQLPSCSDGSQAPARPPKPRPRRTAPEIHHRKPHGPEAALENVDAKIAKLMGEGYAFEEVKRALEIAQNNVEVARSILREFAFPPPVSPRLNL

`O=C(c1cc(F)ccc1-c1cc(C2CC2)nc(-n2cc(C(F)(F)F)c3cc(C4COCCN4)[nH]c3c2=O)c1)N1CC(F)C1` (racemic) [Example 55, 6-[6-cyclopropyl-4-[4-fluoro-2-(3-fluoroazetidine-1-carbonyl)phenyl]pyridin-2-yl]-2-morpholin-3-yl-4-(trifluoromethyl)-1H-pyrrolo[2,3-c]pyridin-7-one] showed an EC50 in experiment [1] (Homo sapiens) of 100 to 1000 nM. Moreover, in experiment [2], the IC50 was below 100 nM.

For `CN1CCOCC1c1cc2c(C(F)(F)F)cn(-c3cc(-c4ccc(F)cc4C(=O)N4CC(F)C4)cc(C4CC4)n3)c(=O)c2[nH]1` (racemic) [Example 56, 6-[6-cyclopropyl-4-[4-fluoro-2-(3-fluoroazetidine-1-carbonyl)phenyl]pyridin-2-yl]-2-(4-methylmorpholin-3-yl)-4-(trifluoromethyl)-1H-pyrrolo[2,3-c]pyridin-7-one], the EC50 in experiment [1] (Homo sapiens) fell in the range of 100 to 1000 nM. The compound further came in with an IC50 in experiment [2] below 100 nM.

Consider `C[C@H]1CCCN(Cc2cc3c(C4CC4)cn(-c4cc(-c5ccc(F)cc5C(=O)N(C)C)cc(C5CC5)n4)c(=O)c3[nH]2)C1` [Example 1, 2-[2-cyclopropyl-6-[4-cyclopropyl-2-[[(3S)-3-methylpiperidin-1-yl]methyl]-7-oxo-1H-pyrrolo[2,3-c]pyridin-6-yl]pyridin-4-yl]-5-fluoro-N,N-dimethylbenzamide], for which the half-maximal effective concentration (EC50) in experiment [1] (Homo sapiens) is below 100 nM. This compound came in with a half-inhibitory concentration (IC50) in experiment [2] below 100 nM. In experiment [1] (Homo sapiens), `CCOCCNC(=O)c1cc(F)ccc1-c1cc(C2CC2)nc(-n2cc(C3CC3)c3cc(CN4CCC[C@H](C)C4)[nH]c3c2=O)c1` [Example 2, 2-[2-cyclopropyl-6-[4-cyclopropyl-2-[[(3S)-3-methylpiperidin-1-yl]methyl]-7-oxo-1H-pyrrolo[2,3-c]pyridin-6-yl]pyridin-4-yl]-N-(2-ethoxyethyl)-5-fluorobenzamide] came in with an EC50 of 1000 to 5000 nM. This compound also returned an IC50 in experiment [2] of 100 to 1000 nM. The corresponding values for `C[C@H]1CCCN(Cc2cc3c(C4CC4)cn(-c4cc(-c5ccc(F)cc5C(=O)N5CCOCC5)cc(C5CC5)n4)c(=O)c3[nH]2)C1` [Example 3, 2-{[(S)-3-methyl-1-piperidyl]methyl}-4-cyclopropyl-6-[6-cyclopropyl-4-(4-fluoro-2-morpholinocarbonylphenyl)-2-pyridyl]-1,6-dihydro-1,6-diaza-7-indenone] are 100 to 1000 nM and below 100 nM. In the same order, the values of `C[C@H]1CCCN(Cc2cc3c(C4CC4)cn(-c4cc(-c5ccc(F)cc5C(=O)N5CCCC5)cc(C5CC5)n4)c(=O)c3[nH]2)C1` [Example 4, 2-{[(S)-3-methyl-1-piperidyl]methyl}-4-cyclopropyl-6-(6-cyclopropyl-4-{4-fluoro-2-[(1-pyrrolidinyl)carbonyl]phenyl}-2-pyridyl)-1,6-dihydro-1,6-diaza-7-indenone] are 100 to 1000 nM and below 100 nM. Consider `CCN(CC)C(=O)c1cc(F)ccc1-c1cc(C2CC2)nc(-n2cc(C3CC3)c3cc(CN4CCC[C@H](C)C4)[nH]c3c2=O)c1` [Example 5, N,N-diethyl2-[2-(2-{[(S)-3-methyl-1-piperidyl]methyl}-4-cyclopropyl-7-oxo-1,6-dihydro-1,6-diaza-6-indenyl)-6-cyclopropyl-4-pyridyl]-5-fluorobenzamide], for which, in experiment [1] (Homo sapiens), the 50% effective concentration (EC50) lay in the range of 100 to 1000 nM. Further, the IC50 in experiment [2] was below 100 nM. Compound `CNC(=O)c1cc(F)ccc1-c1cc(C2CC2)nc(-n2cc(C3CC3)c3cc(CN4CCC[C@H](C)C4)[nH]c3c2=O)c1` [Example 6, N-methyl2-[2-(2-{[(S)-3-methyl-1-piperidyl]methyl}-4-cyclopropyl-7-oxo-1,6-dihydro-1,6-diaza-6-indenyl)-6-cyclopropyl-4-pyridyl]-5-fluorobenzamide] came in with an EC50 in experiment [1] (Homo sapiens) of 100 to 1000 nM. In experiment [2], this compound came in with a concentration for half-maximal inhibition (IC50) below 100 nM.

`C[C@H]1CCCN(Cc2cc3c(C4CC4)cn(-c4cc(-c5ccc(F)cc5C(=O)N5CCC5)cc(C5CC5)n4)c(=O)c3[nH]2)C1` [Example 7, 2-{[(S)-3-methyl-1-piperidyl]methyl}-6-(4-{2-[(1-azetidinyl)carbonyl]-4-fluorophenyl}-6-cyclopropyl-2-pyridyl)-4-cyclopropyl-1,6-dihydro-1,6-diaza-7-indenone] registered an EC50 in experiment [1] (Homo sapiens) below 100 nM. This compound also showed an IC50 in experiment [2] below 100 nM.

In experiment [1] (Homo sapiens), `C[C@H]1CCCN(Cc2cc3c(C4CC4)cn(-c4cc(-c5ccc(F)cc5C(=O)N(C)c5ccccc5)cc(C5CC5)n4)c(=O)c3[nH]2)C1` [Example 8, N-methyl-N-phenyl-2-[2-(2-{[(S)-3-methyl-1-piperidyl]methyl}-4-cyclopropyl-7-oxo-1,6-dihydro-1,6-diaza-6-indenyl)-6-cyclopropyl-4-pyridyl]-5-fluorobenzamide] returned an EC50 above 5000 nM. Moreover, in experiment [2], the IC50 lay within 100 to 1000 nM. With `CC1CCCN1C(=O)c1cc(F)ccc1-c1cc(C2CC2)nc(-n2cc(C3CC3)c3cc(CN4CCC[C@H](C)C4)[nH]c3c2=O)c1` (stereo partly drawn) [Example 9, 2-{[(S)-3-methyl-1-piperidyl]methyl}-4-cyclopropyl-6-(6-cyclopropyl-4-{4-fluoro-2-[(2-methyl-1-pyrrolidinyl)carbonyl]phenyl}-2-pyridyl)-1,6-dihydro-1,6-diaza-7-indenone], the concentration for a half-maximal effect (EC50) in experiment [1] (Homo sapiens) was above 5000 nM. This compound also gave a half-inhibitory concentration (IC50) in experiment [2] below 100 nM.

In turn, `C[C@H]1CCCN(Cc2cc3c(C4CC4)cn(-c4cc(-c5ccc(F)cc5C(=O)N5CC(F)C5)cc(C5CC5)n4)c(=O)c3[nH]2)C1` [Example 10, 2-{[(S)-3-methyl-1-piperidyl]methyl}-4-cyclopropyl-6-(6-cyclopropyl-4-{4-fluoro-2-[(3-fluoro-1-azetidinyl)carbonyl]phenyl}-2-pyridyl)-1,6-dihydro-1,6-diaza-7-indenone] yielded an EC50 in experiment [1] (Homo sapiens) below 100 nM. In experiment [2], this compound came in with a 50% inhibitory concentration (IC50) below 100 nM.

`COC1CN(C(=O)c2cc(F)ccc2-c2cc(C3CC3)nc(-n3cc(C4CC4)c4cc(CN5CCC[C@H](C)C5)[nH]c4c3=O)c2)C1` [Example 11, 2-{[(S)-3-methyl-1-piperidyl]methyl}-4-cyclopropyl-6-(6-cyclopropyl-4-{4-fluoro-2-[(3-methoxy-1-azetidinyl)carbonyl]phenyl}-2-pyridyl)-1,6-dihydro-1,6-diaza-7-indenone] registered a 50% effective concentration (EC50) in experiment [1] (Homo sapiens) of 100 to 1000 nM. Besides, the IC50 in experiment [2] is below 100 nM. As for `C[C@H]1CCCN(Cc2cc3c(C4CC4)cn(-c4cc(-c5ccc(F)cc5C(=O)NCC(F)(F)F)cc(C5CC5)n4)c(=O)c3[nH]2)C1` [Example 12, N-2,2,2-trifluoroethyl2-[2-(2-{[(S)-3-methyl-1-piperidyl]methyl}-4-cyclopropyl-7-oxo-1,6-dihydro-1,6-diaza-6-indenyl)-6-cyclopropyl-4-pyridyl]-5-fluorobenzamide], the EC50 in experiment [1] (Homo sapiens) was 100 to 1000 nM. In experiment [2], this compound gave an IC50 of 100 to 1000 nM. `CCN(C)C(=O)c1cc(F)ccc1-c1cc(C2CC2)nc(-n2cc(C3CC3)c3cc(CN4CCC[C@H](C)C4)[nH]c3c2=O)c1` [Example 13, N-ethyl-N-methyl2-[2-(2-{[(S)-3-methyl-1-piperidyl]methyl}-4-cyclopropyl-7-oxo-1,6-dihydro-1,6-diaza-6-indenyl)-6-cyclopropyl-4-pyridyl]-5-fluorobenzamide]: in experiment [1] (Homo sapiens), the EC50 fell in the range of 100 to 1000 nM. In experiment [2], the concentration for half-maximal inhibition (IC50) was below 100 nM. `CO[C@@H](C)CN(C)Cc1cc2ncn(-c3cc(-c4ccc(F)cc4C(=O)N4CC(F)(F)C4)cc(C4CC4)n3)c(=O)c2[nH]1` [Example 40, 3-[6-cyclopropyl-4-[2-(3,3-difluoroazetidine-1-carbonyl)-4-fluorophenyl]pyridin-2-yl]-6-[[[(2S)-2-methoxypropyl]-methylamino]methyl]-5H-pyrrolo[3,2-d]pyrimidin-4-one] had an IC50 in experiment [2] below 100 nM. `COCCNCc1cc2ncn(-c3cc(-c4ccc(F)cc4C(=O)N4CC(F)(F)C4)cc(C4CC4)c3)c(=O)c2[nH]1` [Example 42, 6-{5-cyclopropyl-2′-[(3,3-difluoro-1-azetidinyl)carbonyl]-4′-fluoro-3-biphenylyl}-2-[(2-methoxyethylamino)methyl]-1,6-dihydro-1,4,6-triaza-7-indenone] showed an EC50 in experiment [1] below 100 nM.

The term EC50 denotes the concentration that produces a half-maximal response. Read a high EC50 as a less potent agent. As usually defined, the IC50 is the concentration needed to halve the response being measured. Low values mean inhibition by little substance, high ones a need for much substance.
